Test [1] concerns the target Phosphatidylinositol 4-kinase type 2-alpha (Homo sapiens) (UniProt Q9BTU6). The experiment in a line: Selectivity interaction (ProQinase) EUB0000171b PI4K2A.
Test [2] concerns the target Alpha-1D adrenergic receptor (Homo sapiens) (UniProt P25100). Kind of test: Selectivity interaction (GPCR panel (PDSP screen)) EUB0001079a ADRA1D. To be noted: at 10 µM.
Test [3] has as its target Serine/threonine-protein kinase mTOR (Homo sapiens, UniProt P42345). Kind of test: Selectivity interaction (KinomeScan (DiscoverX)) EUB0001049a MTOR. Conditions: at 1 µM.
In test [4] the target is T1, Dual specificity mitogen-activated protein kinase kinase 4 (Homo sapiens) (UniProt P45985).
T1 sequence (whole entry): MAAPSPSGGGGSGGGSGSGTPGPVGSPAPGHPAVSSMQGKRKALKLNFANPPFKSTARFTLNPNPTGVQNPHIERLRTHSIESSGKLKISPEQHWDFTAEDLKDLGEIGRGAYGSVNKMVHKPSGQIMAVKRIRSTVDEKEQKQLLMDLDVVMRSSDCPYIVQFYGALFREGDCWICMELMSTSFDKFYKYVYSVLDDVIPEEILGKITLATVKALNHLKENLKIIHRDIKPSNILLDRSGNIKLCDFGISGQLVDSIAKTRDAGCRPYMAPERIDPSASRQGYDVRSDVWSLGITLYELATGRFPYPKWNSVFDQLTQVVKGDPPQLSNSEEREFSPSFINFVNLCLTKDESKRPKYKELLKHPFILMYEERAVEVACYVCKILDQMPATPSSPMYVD
The experiment in a line: Selectivity interaction (KinomeScan (DiscoverX)) EUB0000655a MAP2K4. To be noted: at 10 µM.

For test [5], the target named is RAC-alpha serine/threonine-protein kinase (Homo sapiens, UniProt P31749). The experiment in a line: Selectivity interaction (Kinase screening (Nanosyn)) EUB0000604a AKT1.
Chain of RAC-alpha serine/threonine-protein kinase (P31749 whole entry): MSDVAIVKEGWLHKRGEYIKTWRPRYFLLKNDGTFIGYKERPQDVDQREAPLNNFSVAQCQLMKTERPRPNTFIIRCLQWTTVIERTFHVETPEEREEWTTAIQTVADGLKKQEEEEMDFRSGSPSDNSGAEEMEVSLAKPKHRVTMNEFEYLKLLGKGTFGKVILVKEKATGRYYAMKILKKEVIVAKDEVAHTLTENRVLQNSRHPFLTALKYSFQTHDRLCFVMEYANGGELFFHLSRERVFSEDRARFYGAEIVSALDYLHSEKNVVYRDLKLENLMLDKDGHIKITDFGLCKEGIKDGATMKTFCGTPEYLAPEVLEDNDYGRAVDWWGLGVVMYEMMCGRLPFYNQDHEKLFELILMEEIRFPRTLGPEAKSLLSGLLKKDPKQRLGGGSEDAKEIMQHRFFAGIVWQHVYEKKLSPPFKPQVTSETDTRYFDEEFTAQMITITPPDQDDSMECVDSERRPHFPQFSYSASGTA
The target of test [6] is Serine/threonine-protein kinase PLK1 (Homo sapiens, UniProt P53350).
Chain of Serine/threonine-protein kinase PLK1 (P53350 whole entry): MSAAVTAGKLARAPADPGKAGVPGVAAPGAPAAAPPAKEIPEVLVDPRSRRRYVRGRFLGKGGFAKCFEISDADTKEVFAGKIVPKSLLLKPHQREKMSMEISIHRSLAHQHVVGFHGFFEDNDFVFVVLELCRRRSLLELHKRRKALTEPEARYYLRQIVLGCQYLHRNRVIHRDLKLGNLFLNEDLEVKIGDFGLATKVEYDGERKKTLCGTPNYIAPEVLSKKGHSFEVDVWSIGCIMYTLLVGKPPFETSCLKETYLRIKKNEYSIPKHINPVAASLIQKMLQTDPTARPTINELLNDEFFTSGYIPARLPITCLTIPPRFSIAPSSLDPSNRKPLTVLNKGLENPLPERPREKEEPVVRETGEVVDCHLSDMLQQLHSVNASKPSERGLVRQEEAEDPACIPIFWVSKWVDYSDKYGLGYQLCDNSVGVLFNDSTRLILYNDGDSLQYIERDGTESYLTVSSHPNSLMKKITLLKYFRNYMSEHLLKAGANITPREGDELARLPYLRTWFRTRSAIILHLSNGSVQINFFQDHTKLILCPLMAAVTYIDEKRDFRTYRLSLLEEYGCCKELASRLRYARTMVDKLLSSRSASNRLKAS
Test [7] concerns the target T2, Serine/threonine-protein kinase LATS1 (Homo sapiens) (UniProt O95835).
T2 sequence (whole entry): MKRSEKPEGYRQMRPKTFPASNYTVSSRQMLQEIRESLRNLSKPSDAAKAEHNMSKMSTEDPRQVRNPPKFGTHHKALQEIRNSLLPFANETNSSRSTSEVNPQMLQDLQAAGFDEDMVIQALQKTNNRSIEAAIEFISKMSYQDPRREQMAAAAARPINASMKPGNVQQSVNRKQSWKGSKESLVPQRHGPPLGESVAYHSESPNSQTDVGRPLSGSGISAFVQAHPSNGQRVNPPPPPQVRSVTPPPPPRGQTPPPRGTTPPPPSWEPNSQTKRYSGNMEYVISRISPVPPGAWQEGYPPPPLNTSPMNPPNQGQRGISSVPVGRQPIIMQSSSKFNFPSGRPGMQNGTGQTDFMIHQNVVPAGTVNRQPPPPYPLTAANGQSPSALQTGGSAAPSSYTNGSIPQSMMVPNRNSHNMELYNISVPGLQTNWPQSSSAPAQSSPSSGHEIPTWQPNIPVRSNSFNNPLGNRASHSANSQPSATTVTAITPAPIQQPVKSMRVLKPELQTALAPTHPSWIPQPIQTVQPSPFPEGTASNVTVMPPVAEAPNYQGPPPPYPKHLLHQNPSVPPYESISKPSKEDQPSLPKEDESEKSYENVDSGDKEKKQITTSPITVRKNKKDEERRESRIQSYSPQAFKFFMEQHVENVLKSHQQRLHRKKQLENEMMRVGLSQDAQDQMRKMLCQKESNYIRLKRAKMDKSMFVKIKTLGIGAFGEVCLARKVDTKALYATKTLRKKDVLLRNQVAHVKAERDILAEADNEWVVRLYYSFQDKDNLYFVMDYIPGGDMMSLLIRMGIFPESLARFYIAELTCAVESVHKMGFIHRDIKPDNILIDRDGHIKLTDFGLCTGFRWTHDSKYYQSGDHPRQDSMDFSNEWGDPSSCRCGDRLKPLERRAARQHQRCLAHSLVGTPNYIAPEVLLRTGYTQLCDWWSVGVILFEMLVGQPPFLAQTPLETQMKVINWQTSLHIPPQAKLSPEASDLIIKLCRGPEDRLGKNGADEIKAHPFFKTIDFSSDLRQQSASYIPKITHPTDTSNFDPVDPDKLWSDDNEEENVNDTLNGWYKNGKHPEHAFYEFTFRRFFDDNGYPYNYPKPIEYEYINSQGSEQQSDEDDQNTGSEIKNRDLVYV
The experiment in a line: Selectivity interaction (KinomeScan (DiscoverX)) EUB0000229b LATS1. To be noted: at 10 µM.

The target of test [8] is Casein kinase I isoform gamma-3 (Homo sapiens) (UniProt Q9Y6M4). Kind of test: Selectivity interaction (KinomeScan (DiscoverX)) EUB0000595a CSNK1G3. To be noted: at 10 µM.
Chain of Casein kinase I isoform gamma-3 (Homo sapiens) (Q9Y6M4 whole entry, looked up, canonical isoform): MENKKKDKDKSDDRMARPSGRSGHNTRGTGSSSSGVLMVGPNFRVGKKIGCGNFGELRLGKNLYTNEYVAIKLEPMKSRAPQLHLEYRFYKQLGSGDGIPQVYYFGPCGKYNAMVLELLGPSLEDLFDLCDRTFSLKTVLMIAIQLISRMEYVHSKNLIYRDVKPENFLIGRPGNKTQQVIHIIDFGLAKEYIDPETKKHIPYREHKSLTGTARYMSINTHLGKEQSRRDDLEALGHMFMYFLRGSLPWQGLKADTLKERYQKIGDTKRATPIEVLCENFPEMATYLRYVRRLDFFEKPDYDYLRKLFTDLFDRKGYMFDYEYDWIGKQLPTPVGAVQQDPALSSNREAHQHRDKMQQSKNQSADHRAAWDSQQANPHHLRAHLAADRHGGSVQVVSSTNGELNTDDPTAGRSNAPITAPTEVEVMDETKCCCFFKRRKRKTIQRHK
For test [9], the target named is Cyclin-dependent kinase 2 (Homo sapiens, UniProt P24941). Kind of test: Selectivity interaction (KinomeScan (DiscoverX)) EUB0000595a CDK2. To be noted: at 10 µM.
The target of test [10] is T3, Inhibitor of nuclear factor kappa-B kinase subunit alpha (Homo sapiens) (UniProt O15111).
T3 sequence (whole entry): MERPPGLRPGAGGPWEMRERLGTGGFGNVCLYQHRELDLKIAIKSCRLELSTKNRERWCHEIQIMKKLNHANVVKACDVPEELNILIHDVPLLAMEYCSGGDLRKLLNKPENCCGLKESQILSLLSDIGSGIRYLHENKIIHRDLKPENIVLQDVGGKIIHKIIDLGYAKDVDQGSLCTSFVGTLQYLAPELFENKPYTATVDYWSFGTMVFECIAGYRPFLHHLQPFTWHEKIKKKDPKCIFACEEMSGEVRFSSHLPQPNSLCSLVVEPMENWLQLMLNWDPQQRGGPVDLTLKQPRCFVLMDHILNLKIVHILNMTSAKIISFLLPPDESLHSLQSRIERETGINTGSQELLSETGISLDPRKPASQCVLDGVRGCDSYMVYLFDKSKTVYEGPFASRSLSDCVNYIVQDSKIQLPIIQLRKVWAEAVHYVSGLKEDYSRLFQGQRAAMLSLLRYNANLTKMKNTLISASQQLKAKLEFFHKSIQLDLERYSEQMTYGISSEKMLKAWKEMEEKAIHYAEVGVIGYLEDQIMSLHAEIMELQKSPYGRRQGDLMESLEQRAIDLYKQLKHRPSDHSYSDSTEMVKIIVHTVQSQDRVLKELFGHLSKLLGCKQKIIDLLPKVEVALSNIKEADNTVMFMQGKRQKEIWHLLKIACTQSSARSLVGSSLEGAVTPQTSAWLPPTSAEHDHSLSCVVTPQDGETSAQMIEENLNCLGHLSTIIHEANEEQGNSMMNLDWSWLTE
The experiment in a line: Selectivity interaction (ActivX KiNativ screen (ex vivo kinase selectivity in human PBMCs)) EUB0001619a CHUK. It counts as cell-based. Conditions: PBMC, at 1 µM.

Test [11] has as its target Mitogen-activated protein kinase 7 (Homo sapiens) (UniProt Q13164). The experiment in a line: Selectivity interaction (Kinase panel (KiNativ target engagement assay in Jurkat cells)) EUB0001635a MAPK7. To be noted: Selectivity number of off-targets 0.0, Selectivity number of targets 233.0, Source Knowledge https://www.sciencedirect.com/science/article/pii/S2451945619300674?via%3Dihub, at 1 µM. It counts as cell-based.

The term IC50 denotes the concentration at which inhibition is half-maximal. A higher IC50 goes with weaker potency in that assay.

Chain of Phosphatidylinositol 4-kinase type 2-alpha (Homo sapiens) (Q9BTU6 whole entry): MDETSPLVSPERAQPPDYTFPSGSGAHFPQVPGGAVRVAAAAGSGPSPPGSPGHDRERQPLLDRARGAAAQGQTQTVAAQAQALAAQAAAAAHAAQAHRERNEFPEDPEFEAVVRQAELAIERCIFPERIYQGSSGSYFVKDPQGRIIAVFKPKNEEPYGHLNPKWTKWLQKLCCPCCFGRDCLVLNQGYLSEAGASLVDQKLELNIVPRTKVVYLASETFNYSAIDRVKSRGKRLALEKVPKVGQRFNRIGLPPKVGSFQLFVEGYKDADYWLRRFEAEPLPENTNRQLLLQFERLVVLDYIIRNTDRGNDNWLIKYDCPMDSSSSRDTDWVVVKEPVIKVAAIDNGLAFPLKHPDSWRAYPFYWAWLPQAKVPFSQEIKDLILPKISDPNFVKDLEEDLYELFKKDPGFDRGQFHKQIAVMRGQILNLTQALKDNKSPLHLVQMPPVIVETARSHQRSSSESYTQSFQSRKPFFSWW
Chain of Mitogen-activated protein kinase 7 (Homo sapiens) (Q13164 2-816 limits assumed): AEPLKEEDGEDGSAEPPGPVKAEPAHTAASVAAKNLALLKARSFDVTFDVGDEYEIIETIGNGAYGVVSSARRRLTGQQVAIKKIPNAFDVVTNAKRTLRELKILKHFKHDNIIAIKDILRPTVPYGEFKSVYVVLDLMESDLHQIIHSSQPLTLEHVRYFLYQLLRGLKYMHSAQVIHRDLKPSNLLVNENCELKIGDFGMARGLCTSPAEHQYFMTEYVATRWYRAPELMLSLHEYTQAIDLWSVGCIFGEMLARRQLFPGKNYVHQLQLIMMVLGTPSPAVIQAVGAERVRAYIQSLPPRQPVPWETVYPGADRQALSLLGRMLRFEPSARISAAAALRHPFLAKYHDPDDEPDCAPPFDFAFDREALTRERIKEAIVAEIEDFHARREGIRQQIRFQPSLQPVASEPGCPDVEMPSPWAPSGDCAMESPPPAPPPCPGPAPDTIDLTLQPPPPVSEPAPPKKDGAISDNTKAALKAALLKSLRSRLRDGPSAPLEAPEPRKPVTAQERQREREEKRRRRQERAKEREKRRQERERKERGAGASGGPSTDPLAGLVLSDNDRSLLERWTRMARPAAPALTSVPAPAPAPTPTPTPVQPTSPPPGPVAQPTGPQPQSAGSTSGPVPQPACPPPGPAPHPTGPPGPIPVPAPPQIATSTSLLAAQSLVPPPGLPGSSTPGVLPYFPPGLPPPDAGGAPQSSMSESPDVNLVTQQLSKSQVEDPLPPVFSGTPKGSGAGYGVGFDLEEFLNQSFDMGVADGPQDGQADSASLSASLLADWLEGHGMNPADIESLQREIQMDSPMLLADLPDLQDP
Chain of Alpha-1D adrenergic receptor (Homo sapiens) (P25100 whole entry): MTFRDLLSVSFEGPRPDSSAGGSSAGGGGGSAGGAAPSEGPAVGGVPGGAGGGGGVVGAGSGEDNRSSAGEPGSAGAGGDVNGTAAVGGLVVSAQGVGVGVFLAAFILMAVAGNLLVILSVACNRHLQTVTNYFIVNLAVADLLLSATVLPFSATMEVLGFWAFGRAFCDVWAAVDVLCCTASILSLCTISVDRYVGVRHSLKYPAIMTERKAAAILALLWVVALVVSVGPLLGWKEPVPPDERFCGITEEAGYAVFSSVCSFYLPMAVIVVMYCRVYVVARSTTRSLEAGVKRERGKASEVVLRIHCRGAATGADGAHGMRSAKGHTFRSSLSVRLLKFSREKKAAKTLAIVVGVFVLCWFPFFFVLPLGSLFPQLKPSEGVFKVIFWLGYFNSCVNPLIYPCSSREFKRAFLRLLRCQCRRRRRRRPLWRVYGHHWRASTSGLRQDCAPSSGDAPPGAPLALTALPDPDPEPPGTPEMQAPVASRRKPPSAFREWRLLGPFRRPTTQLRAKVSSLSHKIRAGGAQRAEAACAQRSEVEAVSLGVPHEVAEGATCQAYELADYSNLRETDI

Consider `C=CC(=O)Nc1cccc(C(=O)Nc2ccc(Nc3cc(-c4[nH]c(SC)nc4C)ccn3)cc2)c1`, for which the % of control in [1] (at 1 µM) worked out at 117%; in test [1] (at 5 µM), 133%.

Regarding `Nc1cnc(N2CCc3cc(S(=O)(=O)Nc4c(F)cc(Cl)cc4F)cc(N4CCCC4=O)c32)nc1` [TP-020n], the % of inhibition in test [2] is -2.31%.

`COc1cc(Nc2nc(C)cc(-c3cnn4nc(OC)ccc34)n2)cc(C(F)(F)F)c1`: the % of control in test [3] was 100%.

For `CN(C)CCOc1ccc(-c2nc(-c3ccncc3)c(-c3ccc4c(c3)CC/C4=N\O)[nH]2)cc1`, in test [4], the % of control is 100%.

As for `Cc1cnc(Nc2ccc(F)cc2Cl)nc1-c1c[nH]c(C(=O)N[C@H](CO)c2cccc(Cl)c2)c1`, the % of inhibition in [5] is 0%.

In the case of `CCc1cccc(CC)c1NC(=O)c1nn(C)c2c1CCc1cnc(Nc3ccc(C(=O)NC4CCN(C)CC4)cc3OC(F)(F)F)nc1-2`, in test [6], the IC50 is more than 10 µM.

`COc1cc(N(C)c2ccnc3ccc(C(F)(F)F)cc23)cc(OC)c1OC`: the % binding in test [7] was 100%.

Turning to `COCC(=O)NC/C=C/c1ccc2ncnc(Nc3ccc(Oc4ccc(C)nc4)c(C)c3)c2c1` [CP-724714], the % of control in test [8] was found to be 100%; in [9], 92%.

As to `N#Cc1cccc(-c2c[nH]c3ncnc(N4CCOCC4)c23)c1`, in test [10], the % of inhibition was -7%.

Consider `C=CC(=O)Nc1ccc(C(=O)Nc2[nH]nc3c2CN(C(=O)N[C@H](CN(C)C)c2ccccc2)C3(C)C)cc1`, for which the % of engagement in test [11] is -3.1%.

These data come from ChEMBL document CHEMBL5465560, “Selectivity Literature for EUbOPEN Chemogenomic Library” (2024).
